# Molecular target: T1, purified Na,K-ATPase from lamb kidney (α1) (Ovis aries, UniProt P04074)
# T1 construct: gene ATP1A1; native enzyme purified from lamb kidney (gift of W. Ball); with Sodium/potassium-transporting ATPase subunit beta-1
# Assay: coupled pyruvate kinase/lactate dehydrogenase ATPase assay, NADH absorbance at […] nm, Hill fit
# Type: biochemical
# Details: inhibition; 3 h incubation in K+-free solution; 5 mM ATP, 100 mM NaCl, 10 mM MgCl2; pH 7.3; 37 °C
smiles,measurement,value
C[C@@H]1O[C@@H](O[C@H]2C[C@@H](O)[C@]3(CO)[C@H]4[C@H](O)C[C@]5(C)[C@@H](C6=CC(=O)OC6)CC[C@]5(O)[C@@H]4CC[C@]3(O)C2)[C@H](O)[C@H](O)[C@H]1O [ouabain],K0.5,157 ± 7 nM

# Source: PMC7215781 (International Journal of Molecular Sciences, 2020)
